The record followed here is patent US20230348456A1, “QUINAZOLINONES, PHARMACEUTICAL COMPOSITIONS CONTAINING THE SAME, AND METHODS OF USING THE SAME” (Repare Therapeutics Inc., priority 2022, published 2023).

The structures appear in SMILES notation. Some results are limits rather than exact numbers.

As usually defined, the IC50 is the point on the concentration scale where inhibition reaches its midpoint.

The target in the assay is recombinant human Myt1 (Homo sapiens (Human), UniProt Q99640). The experiment in a line: Myt1 enzymatic assay (ADP-Glo kinase assay). Format: biochemical. Particulars: recombinant human Myt1 18 nM, ATP 10 μM. The procedure: Detection of Myt1 kinase activity utilized a recombinant human Myt1 kinase assay measuring the hydrolysis of ATP using a commercially available ADP-Glo Assay (ADP-Glo™ Kinase Assay from Promega, 10 000 assays, #V9102). Briefly, 5 μL recombinant human Myt1 (full length PKMYT1 recombinant human protein expressed in insect cells from Thermo Fisher #A33387; ˜80% purity) was prepared in reaction buffer (70 mM HEPES, 3 mM MgCl2, 3 mM MnCl2, 50 μg/ml PEG 20000, 3 μM Na-orthovanadate, 1.2 mM DTT) and added to 384 well white polystyrene, flat bottom well, non-treated, microplate (Corning #3572). After this, 5 μL of compounds (diluted in reaction buffer to 0.5% DMSO) was added to the microplate and the plate was spun briefly and incubated at 22° C. for 15 minutes. Ultra-Pure Adenosine Triphosphate (ATP) solution (ADP-Glo kit from Promega) was diluted in reaction buffer and 5 μL was added to the microplate, spun down briefly and incubated for 60 minutes at 30° C. The final Myt1 enzyme concentration was 18 nM and the final ATP concentration was 10 μM. After the 60-minute incubation, 15 μL of ADP-Glo reagent was added and the plate was spun briefly and sealed and incubated in the dark for 40 minutes at 22° C. Following this, 30 μL of kinase detection reagent was added per well and the plate was spun briefly, sealed and incubated for 45-60 minutes at 22° C. in the dark. Luminescence was read using the Envision (250 ms integration). The IC50 and the % max inhibition were calculated for each inhibitor compound tested.
Sequence of recombinant human Myt1 (Q99640 whole entry): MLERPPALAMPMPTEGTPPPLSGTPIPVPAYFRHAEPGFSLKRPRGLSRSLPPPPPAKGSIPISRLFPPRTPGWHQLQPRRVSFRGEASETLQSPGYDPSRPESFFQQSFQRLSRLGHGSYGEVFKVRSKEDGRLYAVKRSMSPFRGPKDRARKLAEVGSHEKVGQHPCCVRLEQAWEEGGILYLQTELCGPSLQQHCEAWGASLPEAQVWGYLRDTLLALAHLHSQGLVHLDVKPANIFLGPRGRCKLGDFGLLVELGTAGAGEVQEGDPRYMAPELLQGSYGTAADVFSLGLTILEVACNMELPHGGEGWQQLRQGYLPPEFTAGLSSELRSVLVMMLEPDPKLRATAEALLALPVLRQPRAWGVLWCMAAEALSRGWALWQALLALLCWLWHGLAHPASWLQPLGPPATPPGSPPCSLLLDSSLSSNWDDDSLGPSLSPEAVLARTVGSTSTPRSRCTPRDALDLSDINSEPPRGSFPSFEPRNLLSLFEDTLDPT
Take `Nc1c(-c2cccc3[nH]ncc23)cc(Br)c2nc(-c3ccc(N4CCN(C5CC5)CC4)nc3)[nH]c(=O)c12` [Compound 26]: the IC50 was found to be 5 nM.

Regarding `Cc1ccc2[nH]ncc2c1-c1cc(-c2ccnnc2)c2c(c1N)C(=O)NC2` [Compound 51], the IC50 was 1230 nM.

For `Nc1c(-c2cccc3[nH]ncc23)cc(-c2nccs2)c2nc(C3CC3)[nH]c(=O)c12` [Compound 8], the 50% inhibitory concentration (IC50) was found to be 131 nM.

Consider `Nc1c(-c2cccc3[nH]ncc23)ccc2nc[nH]c(=O)c12` [Compound 109], for which the IC50 turned out to be 122 nM.

Regarding `Cc1ccc(O)cc1-c1cc(-c2nc(NC(=O)C3CCOCC3)cs2)c2c(c1N)C(=O)NC2` [Compound 144], the half-inhibitory concentration (IC50) was 930 nM.

As to `Cc1ccc(O)cc1-c1cc(-c2nc(C#N)cs2)c2c(c1N)C(=O)NC2` [Compound 160], the IC50 came out at 237 nM.

Turning to `Nc1c(-c2cccc3[nH]ncc23)cc(-c2nccs2)c2nc(-c3ccc(-c4ccccc4)cc3)[nH]c(=O)c12` [Compound 6], the IC50 was greater than 2000 nM.

Regarding `Cn1ccc(-c2cc(-c3cccc4[nH]ncc34)c(N)c3c(=O)[nH]cnc23)n1` [Compound 129], the 50% inhibitory concentration (IC50) amounted to 23 nM.

Consider `CC1(O)CCN(c2ccc(-c3nc4c(Br)cc(-c5cccc6[nH]ncc56)c(N)c4c(=O)[nH]3)cn2)CC1` [Compound 47], for which the IC50 worked out at 11 nM.

On to `CNC(=O)c1csc(-c2cc(-c3cc(O)ccc3C)c(N)c3c2CNC3=O)n1` [Compound 159], for which the IC50 is 75 nM.

For `Nc1c(-c2cccc3[nH]ncc23)cc(-n2cc(F)cn2)c2nc(-c3cccnc3)[nH]c(=O)c12` [Compound 75], the 50% inhibitory concentration (IC50) stood at 6 nM.

On to `Nc1c(-c2cccc3[nH]ncc23)cc(-c2nccs2)c2nc(-c3ccnc(N4CCNCC4)c3)[nH]c(=O)c12` [Compound 31], for which the IC50 worked out at 15 nM.

As to `Nc1c(-c2cccc3[nH]ncc23)cc(-c2cnn(C3CC3)c2)c2nc(-c3ccncc3)[nH]c(=O)c12` [Compound 72], the 50% inhibitory concentration (IC50) turned out to be 3 nM.

Turning to `Cc1ccc2[nH]ncc2c1-c1cc(-c2cccc(OCCN3CCOCC3)n2)c2nc[nH]c(=O)c2c1N` [Compound 88], the 50% inhibitory concentration (IC50) is 5 nM.

`Cc1ccc2[nH]ncc2c1-c1cc(-c2nccs2)c2c(c1N)C(=O)NC2` [Compound 63]: the IC50 was 16 nM.

Regarding `Nc1c(-c2cccc3[nH]ncc23)cc(-n2cc3c(n2)CCC3)c2nc(-c3ccncc3)[nH]c(=O)c12` [Compound 86], the IC50 is 18 nM.

Consider `Nc1c(-c2cccc3[nH]ncc23)cc(Br)c2nc(-c3ccncc3)[nH]c(=O)c12` [Compound 83], for which the half-inhibitory concentration (IC50) was 5 nM.

As for `Nc1c(-c2cccc3[nH]ncc23)cc(Br)c2nc(-c3ccc(N4CCC(O)CC4)nc3)[nH]c(=O)c12` [Compound 45], the IC50 turned out to be 18 nM.

Turning to `Nc1c(-c2cccc3[nH]ncc23)cc(-c2nccs2)c2nc(-c3cccc(N4CCOCC4)c3)[nH]c(=O)c12` [Compound 18], the IC50 is 9 nM.

`Nc1c(-c2cccc3[nH]ncc23)cc(-c2ccc(Cl)s2)c2nc[nH]c(=O)c12` [Compound 123]: the IC50 was 89 nM.

As to `Cc1ccc(-c2cc(-c3cccc4[nH]ncc34)c(N)c3c(=O)[nH]cnc23)s1` [Compound 121, 5-amino-6-(1H-indazol-4-yl)-8-(5-methylthiophen-2-yl)quinazolin-4(3H)-one], the IC50 stood at 62 nM.

Consider `Nc1c(-c2cccc3[nH]ncc23)cc(-c2nccs2)c2nc(-c3cccnc3)[nH]c(=O)c12` [Compound 111], for which the IC50 came out at 4 nM.

Take `Nc1c(-c2cccc3[nH]ncc23)cc(Br)c2nc(-c3ccc(NC4CCOC4)nc3)[nH]c(=O)c12` (centres unmarked) [Compound 19]: the IC50 came to 3 nM.

With `Nc1c(-c2cccc3[nH]ncc23)cc(-c2nccs2)c2nc(-c3ccc(N4CCOCC4)nc3)[nH]c(=O)c12` [Compound 2], the IC50 came to 15 nM.

`Cc1ccc(O)c(C)c1-c1cc(C2CC2)c2nc(-c3ccncc3)[nH]c(=O)c2c1N` (single isomer, unassigned) [Compound 22, 5-amino-8-cyclopropyl-6-(3-hydroxy-2,6-dimethyl-phenyl)-2-(4-pyridyl)-3H-quinazolin-4-one]: the IC50 was determined as 3 nM.

As to `Cc1ccc(O)c(C)c1-c1cc(-c2ccn(C3CC3)n2)c2nc(-c3ccncc3)[nH]c(=O)c2c1N` [Compound 135], the IC50 turned out to be 3 nM.

As to `Nc1c(-c2cccc3[nH]ncc23)cc(-c2cccc(=O)[nH]2)c2nc(-c3cccnc3)[nH]c(=O)c12` [Compound 80], the 50% inhibitory concentration (IC50) amounted to 6 nM.

Take `Nc1c(-c2cccc3[nH]ncc23)cc(-n2cc(C(F)(F)F)cn2)c2nc(-c3ccncc3)[nH]c(=O)c12` [Compound 87]: the IC50 is 100 nM.

As for `Nc1c(-c2cccc3[nH]ncc23)cc(-c2ncccn2)c2nc[nH]c(=O)c12` [Compound 122], the concentration for half-maximal inhibition (IC50) is 170 nM.

On to `Cc1ccc(-c2nc3c(-c4nccs4)cc(-c4cccc5[nH]ncc45)c(N)c3c(=O)[nH]2)cc1` [Compound 3], for which the IC50 is 33 nM.

`CNC(=O)c1cnc(-c2cc(-c3cc(O)ccc3C)c(N)c3c2CNC3=O)s1` [Compound 150]: the IC50 turned out to be 163 nM.

As for `CN1CCN(c2ccc(-c3nc4c(Br)cc(-c5cccc6[nH]ncc56)c(N)c4c(=O)[nH]3)cn2)CC1` [Compound 24], the 50% inhibitory concentration (IC50) came out at 10 nM.

On to `Cc1ccc(O)c(C)c1-c1cc(-c2cnn(C3CC3)c2)c2nc(-c3ccncc3)[nH]c(=O)c2c1N` (atropisomer, axis not shown) [Compound 27], for which the IC50 worked out at 2 nM.

On to `Nc1c(-c2cccc3[nH]ncc23)cc(-c2ccc(C(F)(F)F)cc2)c2nc[nH]c(=O)c12` [Compound 125], for which the half-maximal inhibitory concentration (IC50) was 839 nM.

Consider `Cc1ccc(O)cc1-c1cc(-c2nc(C(=O)N(C)C)cs2)c2c(c1N)C(=O)NC2` [Compound 151], for which the IC50 is 61 nM.

On to `Cc1ccc(O)cc1-c1cc(-c2ncc(C(=O)N(C)C)s2)c2c(c1N)C(=O)NC2` [Compound 154], for which the IC50 amounted to 298 nM.

For `N#Cc1cnc(-c2cc(-c3cccc4[nH]ncc34)c(N)c3c(=O)[nH]cnc23)s1` [Compound 128], the concentration for half-maximal inhibition (IC50) is 5 nM.

As to `Cc1ccc(O)cc1-c1cc(-c2nc(C(=O)O)cs2)c2c(c1N)C(=O)NC2` [Compound 162], the IC50 amounted to 182 nM.

With `Nc1c(-c2cccc3[nH]ncc23)cc(-n2cccn2)c2nc(-c3cccnc3)[nH]c(=O)c12` [Compound 79], the half-inhibitory concentration (IC50) amounted to 3 nM.

As to `Nc1ccc(-c2nc3c(-c4nccs4)cc(-c4cccc5[nH]ncc45)c(N)c3c(=O)[nH]2)cn1` [Compound 4], the half-maximal inhibitory concentration (IC50) came to 5 nM.

For the molecule `Nc1c(-c2cccc3[nH]ncc23)cc(-c2ncc(F)cn2)c2nc[nH]c(=O)c12` [Compound 120], the half-inhibitory concentration (IC50) was found to be 189 nM.

Consider `Cc1ccc2[nH]ncc2c1-c1cc(-c2cccc(OCc3ncco3)n2)c2nc[nH]c(=O)c2c1N` [Compound 91], for which the concentration for half-maximal inhibition (IC50) came out at 5 nM.

In the case of `Cc1ccc(O)cc1-c1cc(-c2nc(C(F)(F)F)cs2)c2c(c1N)C(=O)NC2` [Compound 149], the IC50 came out at 682 nM.

Consider `Cc1ccc(O)cc1-c1cc(-c2ncc(C(=O)O)s2)c2c(c1N)C(=O)NC2` [Compound 148], for which the half-maximal inhibitory concentration (IC50) was 1860 nM.

Turning to `Cc1ccc(O)cc1-c1cc(-c2ncc(NC(=O)C3CC3)s2)c2c(c1N)C(=O)NC2` [Compound 142], the half-inhibitory concentration (IC50) amounted to 2240 nM.

With `N#Cc1csc(-c2cc(-c3cccc4[nH]ncc34)c(N)c3c(=O)[nH]cnc23)n1` [Compound 107], the half-maximal inhibitory concentration (IC50) came out at 3 nM.

Regarding `N#Cc1cccc(-c2nc3c(-c4nccs4)cc(-c4cccc5[nH]ncc45)c(N)c3c(=O)[nH]2)c1` [Compound 21], the 50% inhibitory concentration (IC50) was 6 nM.

Regarding `Nc1c(-c2cccc3[nH]ncc23)cc(-c2ncc(Cl)s2)c2nc[nH]c(=O)c12` [Compound 114], the 50% inhibitory concentration (IC50) is 28 nM.

Consider `Nc1c(-c2cccc3[nH]ncc23)cc(-c2cccc(C(F)(F)F)c2)c2nc[nH]c(=O)c12` [Compound 49], for which the 50% inhibitory concentration (IC50) is 990 nM.

Consider `CN1CC=C(c2cc(-c3cccc4[nH]ncc34)c(N)c3c(=O)[nH]c(-c4ccncc4)nc23)CC1` [Compound 56], for which the half-inhibitory concentration (IC50) amounted to 7 nM.
